Where two headings read alike, the source gives them in different places.
Columns and labels:
[1] = test system: 4T1 breast carcinoma; assay: Vaccination model, drug-treated 4T1 cells in BALB/c mice; type: in vivo; design: unit not given here; details: 4T1, BALB/c mice; for tumor size, left side with drug treatment: cells treated with 10 μM Du 102
[2] = test system: T cell activation markers; assay: T cell activation markers, 4T1 breast carcinoma in BALB/c mice; type: in vivo; details: DMSO 1.0
Source text: Example 10. Du 102 Treatment Induces the Expression of T Cell Activation Markers of 4T1 Breast Cancer in BALB/c Mice

[3] = test system: Drosophila stem cell tumors; assay: Drosophila screen (stem cell / intestinal tumors); type: in vivo
[4] = target: T1, Arf1 (Homo sapiens, UniProt P84077); assay: Active Arf1 Pull-Down and Detection Kit (GTP-bound Arf1); type: biochemical; details: liver cancer Huh-7 cell lysate; FIG. 1
T1 construct: Active Arf1 was detected by using The Thermo Scientific Pierce Active Arf1 Pull-Down and Detection Kit (Cat #16121) with liver cancer Huh-7 cell lysate; endogenous in cells; host or cells: Huh-7 liver cancer cells (lysate)
Source text: Active Arf1 was detected by using The Thermo Scientific Pierce Active Arf1 Pull-Down and Detection Kit (Cat #16121) with liver cancer Huh-7 cell lysate. It is a complete kit for selective enrichment and detection of GTP-bound Arf1 GTPase through specific protein interaction with the GGA3 protein-binding domain (FIG. 1).

[5] = test system: INFγ; assay: IFN-γ assay, CD11c+ DC and CD8+ T cells co-cultured with treated CT26 cells; type: cell-based; details: CT-26 colon cancer model, BALB/c mice; co-culture 2 days
Protocol: For IL-1 β Assay: seven days after CT26 cell lysate injection. CD11c+DCs were isolated from injected BALB/c mice and co cultured with CT26 cells treated with DMSO or du102. After 2 days, […] was measured in harvested cells (Table 11). For the IFN-y assay: CD11c^+ DC and CD8^+ T cells were isolated from injected BALB/c mice 7 days after CT26 cell lysate injection and co cultured with CT26 cells treated with DMSO or du102. After 2 days. IFN-y was measured in harvested cells (table 11).

[6] = test system: CT-26 colon cancer; assay: Vaccination model, drug-treated CT-26 cells in BALB/c mice; type: in vivo; design: tumor size, left side with drug treatment / tumors on right side after vaccination on left side: unit not given here; details: CT-26, BALB/c mice; for tumor size, left side with drug treatment: cells treated with 10 μM Du 102; for tumors on right side after vaccination on left side: untreated cells re-challenge
[7] = test system: B16-F10 melanoma; assay: Drug-treated B16-F10 cells in athymic nude mice; type: in vivo; design: unit not given here; details: cells treated with 10 μM Du 102
Protocol: (§1) The immunogenicity of the reagents can be tested in mouse vaccination models (Obeid et al., 2007; Sagiv barfi et al., 2018). One flank of the mouse was injected with drug treated tumor cells, followed one week later by a second injection of syngeneic tumor cells. We tested the vaccine efficacy in CT-26 colon cancer, B16-F10 melanoma, and 4T1 breast cancer treated with DMSO or du102.
(§2) Cells will be treated with 10 μM Du 102 or DMSO treated CT26, 4T1 and B16-F10 tumor cells (5×10^5\1×10^5 and 5×10^5, respectively) were subcutaneously inoculated into 6-week-old female mice. After 7 days, equal amounts of corresponding tumor cells were seeded to the right side. Tumor cell lines were mixed with Matrigel (GIBCO, cat s̆ 354234) or resuspended in PBS and injected subcutaneously or intradermally.

[8] = test system: 4T1 breast carcinoma; assay: Drug-treated 4T1 cells in athymic nude mice; type: in vivo; design: unit not given here; details: cells treated with 10 μM Du 102
Protocol: as §1, §2

[9] = test system: CT-26 colon carcinoma; assay: Drug-treated CT-26 cells in athymic nude mice; type: in vivo; design: unit not given here; details: cells treated with 10 μM Du 102
Protocol: as §1, §2

[10] = test system: B16-F10 melanoma; assay: Vaccination model, drug-treated B16-F10 cells in C57B/6 mice; type: in vivo; design: unit not given here; details: B16-F10, C57B/6 mice; for tumor size, left side with drug treatment: cells treated with 10 μM Du 102
[11] = test system: colorectal cancer cell line LoVo; assay: In vitro cell line screening, LoVo; type: cell-based
Source text: In different tumor cytotoxicity experiments in vitro (FIG. 2-FIG. 7), including colorectal cancer cell lines HT29 and LoVo cells, liver cancer cell Huh7, lung cancer cells H460 and A549, the arf1 inhibitor could all inhibit tumor cell growth (FIG. 2-FIG. 6), and there was a dose-dependent manner (FIG. 7).

T1 sequence (P84077 whole entry): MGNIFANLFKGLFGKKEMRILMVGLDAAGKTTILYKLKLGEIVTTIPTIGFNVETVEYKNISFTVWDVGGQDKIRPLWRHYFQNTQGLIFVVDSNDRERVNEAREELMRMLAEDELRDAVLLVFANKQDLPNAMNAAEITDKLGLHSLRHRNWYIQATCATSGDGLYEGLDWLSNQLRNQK

Q: For “1H-indolo-5-carbaldehyde 5,6,7,8,9,10-hexahydrocycloocta[4,5]thieno[2,3-d]pyrimidin-4-ylhydrazone [Du 102]”, which “tumors on right side after vaccination on left side” value (shortened to “tumors on right side”) ([1]; Day 0) is on record?
A: 0

Q: What about the “tumor size, left side with drug treatment” value (“tumor size, left side” below) ([1]; Day 0) of the same substance?
A: 0

Q: What about the “tumors on right side” value ([1]; Day 5) of the same substance?
A: 0

Q: What about the “tumor size, left side” value ([1]; Day 5) of the same substance?
A: 0

Q: And the “tumors on right side” value ([1]; Day 10)?
A: 0

Q: What about the “tumor size, left side” value ([1]; Day 10) of the same substance?
A: 2.3

Q: And the “tumors on right side” value ([1]; Day 15)?
A: 0

Q: And the “tumor size, left side” value ([1]; Day 15)?
A: 18.4

Q: What about the “tumors on right side” value ([1]; Day 20) of the same substance?
A: 3.2

Q: And the “tumor size, left side” value ([1]; Day 20)?
A: 63.5

Q: And the “tumors on right side” value ([1]; Day 25)?
A: 7.9

Q: What about the “tumor size, left side” value ([1]; Day 25) of the same substance?
A: 102.4

Q: What about the “tumors on right side” value ([1]; Day 30) of the same substance?
A: 16.4

Q: And the “tumor size, left side” value ([1]; Day 30)?
A: 173.6

Q: And the Gzm8 expression [2]?
A: 2.3

Q: What about the GzmA expression [2] of the same substance?
A: 2.2

Q: What about the IL-1β expression [2] of the same substance?
A: 2.2

Q: What about the INFγ expression [2] of the same substance?
A: 2.1

Q: What about the PD-L1 expression [2] of the same substance?
A: 0.5

Q: What about the Perforin expression [2] of the same substance?
A: 2.5

Q: And the “in vivo tumor suppressive effects” value ([3]; Drosophila screen, FIG. 8)?
A: good in vivo tumor suppressive effects

Q: What about the “killing Drosophila stem cell tumors” value ([3]; in vivo) of the same substance?
A: effective

Q: And the “inhibition of arf1 activation” value [4]?
A: potent inhibitors

Q: What about the INFγ [5] of the same substance?
A: 623

Q: And the “regression of both left- and right-sided tumours” value ([6]; tables 3 and 4)?
A: almost complete regression

Q: And the “tumor size, left side” value ([6]; Day 0)?
A: 0

Q: What about the “tumors on right side” value ([6]; Day 0) of the same substance?
A: 0

Q: What about the “tumor size, left side” value ([6]; Day 5) of the same substance?
A: 0

Q: What about the “tumors on right side” value ([6]; Day 5) of the same substance?
A: 0

Q: What about the “tumor size, left side” value ([6]; Day 10) of the same substance?
A: 2

Q: What about the “tumors on right side” value ([6]; Day 10) of the same substance?
A: 0

Q: What about the “tumor size, left side” value ([6]; Day 15) of the same substance?
A: 8

Q: And the “tumor size, left side” value ([6]; Day 20)?
A: 57

Q: And the “tumors on right side” value ([6]; Day 20)?
A: 3.7

Q: And the “tumor size, left side” value ([6]; Day 25)?
A: 81

Q: What about the “tumors on right side” value ([6]; Day 25) of the same substance?
A: 7.6

Q: What about the “tumor size, left side” value ([6]; Day 30) of the same substance?
A: 178

Q: What about the “tumors on right side” value ([6]; Day 30) of the same substance?
A: 14.1

Q: What about the “B16-F10 melanoma tumor in Athymic mice” value ([7]; Day 0) of the same substance?
A: 0

Q: And the “B16-F10 melanoma tumor in Athymic mice” value ([7]; Day 5)?
A: 7.3

Q: What about the “B16-F10 melanoma tumor in Athymic mice” value ([7]; Day 10) of the same substance?
A: 51.8

Q: And the “B16-F10 melanoma tumor in Athymic mice” value ([7]; Day 15)?
A: 202.7

Q: And the “B16-F10 melanoma tumor in Athymic mice” value ([7]; Day 20)?
A: 355.9

Q: What about the “B16-F10 melanoma tumor in Athymic mice” value ([7]; Day 25) of the same substance?
A: 853.4

Q: What about the “4T1 breast carcinoma tumor in Athymic mice” value (shortened to “4T1 breast carcinoma tumor”) ([8]; Day 0) of the same substance?
A: 0

Q: What about the “4T1 breast carcinoma tumor” value ([8]; Day 5) of the same substance?
A: 21.7

Q: What about the “4T1 breast carcinoma tumor” value ([8]; Day 10) of the same substance?
A: 41.3

Q: And the “4T1 breast carcinoma tumor” value ([8]; Day 15)?
A: 163.3

Q: And the “4T1 breast carcinoma tumor” value ([8]; Day 20)?
A: 385.4

Q: What about the “4T1 breast carcinoma tumor” value ([8]; Day 25) of the same substance?
A: 793.2

Q: What about the “CT-26 colon carcinoma tumor in Athymic mice” value (“CT-26 colon carcinoma tumor” for short) ([9]; Day 0) of the same substance?
A: 0

Q: What about the “CT-26 colon carcinoma tumor” value ([9]; Day 5) of the same substance?
A: 0

Q: And the “CT-26 colon carcinoma tumor” value ([9]; Day 10)?
A: 15

Q: And the “CT-26 colon carcinoma tumor” value ([9]; Day 15)?
A: 117

Q: What about the “CT-26 colon carcinoma tumor” value ([9]; Day 20) of the same substance?
A: 417

Q: What about the “CT-26 colon carcinoma tumor” value ([9]; Day 25) of the same substance?
A: 859

Q: And the “tumors on right side” value ([10]; Day 0)?
A: 0

Q: What about the “tumor size, left side” value ([10]; Day 0) of the same substance?
A: 0

Q: And the “tumors on right side” value ([10]; Day 5)?
A: 0

Q: And the “tumor size, left side” value ([10]; Day 5)?
A: 0

Q: What about the “tumors on right side” value ([10]; Day 10) of the same substance?
A: 0

Q: What about the “tumor size, left side” value ([10]; Day 10) of the same substance?
A: 2

Q: And the “tumors on right side” value ([10]; Day 15)?
A: 0.6

Q: What about the “tumor size, left side” value ([10]; Day 15) of the same substance?
A: 8

Q: And the “tumors on right side” value ([10]; Day 20)?
A: 1.3

Q: What about the “tumor size, left side” value ([10]; Day 20) of the same substance?
A: 57

Q: What about the “tumors on right side” value ([10]; Day 25) of the same substance?
A: 9.1

Q: What about the “tumor size, left side” value ([10]; Day 25) of the same substance?
A: 81

Q: And the “tumors on right side” value ([10]; Day 30)?
A: 21.3

Q: What about the “tumor size, left side” value ([10]; Day 30) of the same substance?
A: 177

Q: What about the tumor suppressive effect [11] of the same substance?
A: some tumor suppressive effect

Q: And the tumor suppressive effect ([11]; listed as Dul02)?
A: effective tumor suppressive effects
